According to patent publication EP0547508A1, “Use of xanthine derivatives for the stabilisation of the auto-regulation of cerebral blood flow” (priority 1991, dated 1993):

Test system: Ratten
Experiment: Cerebral autoregulation in rats under adrenaline-induced acute hypertension, with or without carotid occlusion (ischaemia/reperfusion)
Type: in vivo
Text: Es werden 36 Ratten unterteilt in drei Gruppen operiert. Die erste Gruppe dient als Kontrolle, d.h. es wird eine akute Hypertonie erzeugt, ohne daß die Carotiden abgeklemmt werden. Die zweite Gruppe wird während der Ischämie und die dritte Gruppe während der Reperfusion mit Adrenalin stimuliert. In jeder Gruppe werden jeweils 6 Tiere mit der Verbindung 1 als Dauerinfusion behandelt.
Bei einem mittleren arteriellen Druck von 170 mmHg wird in der Kontrollgruppe die cerebrale Autoregulation durchbrochen (entsprechend 3 µg/kg Adrenalin (Firma Sigma)). Die dreifache Dosis führt bei einem Blutdruck von 200 mmHg zum Tod der Tiere. Im Gegensatz dazu ist in der mit Verbindung 1 behandelten Gruppe die dreifache Konzentration und ein mittlerer Druck von 180 mmHg erforderlich um an die Grenze der Autoregulation zu kommen. Der Verschluß beider Carotiden führt bei den Tieren, die mit Verbindung 1 behandelt wurden, zu einer höheren Restdurchblutung (25 %) als bei den Kontrolltieren. Während der Reperfusion bleibt die Gehirndurchblutung in der Kontrollgruppe auf dem niedrigen Niveau von 23 %. Die Autoregulation wird bereits bei 150 mmHg durchbrochen (entsprechend 3 µg/kg/Adrenalin). […] Erst bei 180 mmHg kommt es zum Durchbruch der Autoregulation.
Alle Kontrolltiere verstarben nach einer Dosis von 10 µg/kg Adrenalin. Die letale Dosis für mit Verbindung 1 behandelte Tiere liegt bei 30 µg/kg Adrenalin. Zusammenfassend läßt sich feststellen, daß die mit Verbindung 1 behandelten Tiere - im Vergleich mit den Kontrolltieren - höhere Blutdruckspitzen und Blutdruckabsenkungen tolerieren und deren Gehirndurchblutungsautoregulation erst bei der 3-fachen Adrenalinkonzentration durchbrochen wird.

SMILES: CCCn1cnc2c1c(=O)n(CCCCC(C)=O)c(=O)n2C [Verbindung 1, 1-(5-Oxohexyl)-3-methyl-7-n-propyl-xanthin]
- mittlerer Druck erforderlich um an die Grenze der Autoregulation zu kommen (acute hypertension by Adrenalin, carotids not clamped, Verbindung 1 as continuous infusion, control group 170 mmHg): 180 mmHg
- Adrenalin-Konzentration erforderlich um an die Grenze der Autoregulation zu kommen (acute hypertension, carotids not clamped, relative to control group (3 µg/kg Adrenalin)): dreifache
- Durchbruch der Autoregulation (during reperfusion, Adrenalin stimulation, control group 150 mmHg): 180 mmHg
- Restdurchblutung (occlusion of both carotids (ischaemia), higher than in control animals): 25%
- Gehirndurchblutung während der Reperfusion (reperfusion after carotid occlusion, control group stays at 23 %): erreichen sofort wieder das präischämische Ausgangsniveau
- Adrenalinkonzentration bei der die Gehirndurchblutungsautoregulation durchbrochen wird (summary, fold compared with control animals): 3
